Laboratory results reported in patent EP0061208A1, “Insecticidal control of ectoparasites” (JANSSEN PHARMACEUTICA N.V., priority 1981, dated 1982).

Tested on: lice
Test: in-vivo experiment: single pour-on application to louse-infested sheep, evaluation of louse infestation
Parameters: key: +: numphs or adults were detected; -: no live lice were found
Settings: single pour-on along the back, solution 5% by weight in 2-(Z-butoxyethoxy)ethanol; for louse infestation, weeks 1: after 1 week; for louse infestation, weeks 2: after 2 weeks; for louse infestation, weeks 3: after 3 weeks; for louse infestation, weeks 4: after 4 weeks; for louse infestation, weeks 6.5: after 6.5 weeks
Experimental: The efficacy of the ectoparasiticidal method and compositions of the present invention is illustrate by the following in-vivo experiment: • 4 moderately louse-infested sheep were given a single pour-on application of a solution comprising 5% by weight of cypermetrin • in 2-(Z-butoxyethoxy)ethanol. • The louse infestation was evaluated after 1, 2, 3, 4 and 6. 5 weeks. The evaluation of the louse-infestation is illustrated in table 1 wherein • + means that numphs or adults were detected, and • - means that no live lice were found.

## CC1(C)C(C=C(Cl)Cl)C1C(=O)OC(C#N)c1cccc(Oc2ccccc2)c1 (stereo not shown) [cypermetrin, [[cyano(3-phenoxyphenyl)]methyl] 2-(2,2-dichloroethenyl)-3,3-dimethylcyclopropanecarboxylate]
Dose 10 mg/kg, 10 mg/kg
  louse infestation, weeks 1: + and -
  louse infestation, weeks 2: + and -
  louse infestation, weeks 3: + and -
  louse infestation, weeks 4: + and -
Dose 10 mg/kg
  louse infestation, weeks 6.5: -
Dose 20 mg/kg
  louse infestation, weeks 1: -
  louse infestation, weeks 2: -
  louse infestation, weeks 3: -
  louse infestation, weeks 4: -
  louse infestation, weeks 6.5: -
